US4629567A, “Alpha-1-antiprotease purification” (SmithKline-RIT, priority 1986, dated 1986)

Columns and labels:
trypsin [1] = experiment: standard trypsin inhibition assay (microtest with chromogenic substrate S2444); type: biochemical; details: fixed amount of trypsin, 20 min at 37° C.
Procedure: The activity of the four AAT proteins purified by the method of the invention was compared to that of a standard AAT preparation derived from serum in a standard trypsin inhibition assay. The assay measures the inhibitory capacity of α1 -antitrypsin toward trypsin. It consists of a microtest using the chromogenic substrate S2444 (L-pyroglutamylglycyl-L-arginine, p-nitroanilide hydrochloride, Kabi Diagnostica, Stockholm, Sweden). The polystyrene microtest plates were incubated for 1 hr with 1% bovine serum albumin and washed extensively with distilled water. α1 -antitrypsin at various concentrations was incubated with a fixed amount of trypsin for 20 min at 37° C. in a 200- 1 final reaction volume of 0.1 M Tris-HCl pH 8.2/0.15 M NaCl/0.01 M EDTA/0.5% polyethylene glycol, Mr 6000). Samples were cooled slowly at room temperature and then exposed to the chromogenic substrate (20 μl of aqueous solution of 0.003 M S2444). After 5 min at room temperature, the reaction was stopped with 50 μl of 50% acetic acid.
Absorbance was read at 405 nm in a micro-ELISA automatic reader (Dynatech AM120). Calibration curves were determined for both trypsin and α1 -antitrypsin. Samples to be assayed were diluted serially in reaction buffer.

trypsin [2] = experiment: as above; type: biochemical; details: fixed amount of trypsin, 20 min at 37° C.; remark: listed apart in the source

standard: standard AAT preparation derived from serum
% inhibition of trypsin activity (trypsin [1]; AAT concentration 0.50 ug/ml): 11%
% inhibition of trypsin activity (trypsin [1]; AAT concentration 1 ug/ml): 33%
% inhibition of trypsin activity (trypsin [1]; AAT concentration 2 ug/ml): 66%
% inhibition of trypsin activity (trypsin [1]; AAT concentration 2.50 ug/ml): 74%
% inhibition of trypsin activity (trypsin [1]; AAT concentration 3.50 ug/ml): 82%
% inhibition of trypsin activity (trypsin [1]; AAT concentration 4.50 ug/ml): 90%
Optical density (A410) (trypsin [2]; AAT concentration 0.50 ug/ml): .78
Optical density (A410) (trypsin [2]; AAT concentration 1 ug/ml): .63
Optical density (A410) (trypsin [2]; AAT concentration 2 ug/ml): .32
Optical density (A410) (trypsin [2]; AAT concentration 2.50 ug/ml): .24
Optical density (A410) (trypsin [2]; AAT concentration 3.50 ug/ml): .17
Optical density (A410) (trypsin [2]; AAT concentration 4.50 ug/ml): .1

4: AAT from human plasma, purified by the method of the invention [Sample 4]
% inhibition of trypsin activity (trypsin [1]; AAT concentration 0.25 ug/ml): 17%
% inhibition of trypsin activity (trypsin [1]; AAT concentration 1 ug/ml): 46%
% inhibition of trypsin activity (trypsin [1]; AAT concentration 2 ug/ml): 93%
Optical density (A410) (trypsin [2]; AAT concentration 0.25 ug/ml): 0.74
Optical density (A410) (trypsin [2]; AAT concentration 1 ug/ml): 0.48
Optical density (A410) (trypsin [2]; AAT concentration 2 ug/ml): 0.06

3: mature AAT (having N-met in place of the N-glu) expressed in yeast [Sample 3]
% inhibition of trypsin activity (trypsin [1]; AAT concentration 0.25 ug/ml): 7%
% inhibition of trypsin activity (trypsin [1]; AAT concentration 0.50 ug/ml): 17%
% inhibition of trypsin activity (trypsin [1]; AAT concentration 1.50 ug/ml): 47%
Optical density (A410) (trypsin [2]; AAT concentration 0.25 ug/ml): 0.95
Optical density (A410) (trypsin [2]; AAT concentration 0.50 ug/ml): 0.84
Optical density (A410) (trypsin [2]; AAT concentration 1.50 ug/ml): 0.54
